# Results taken from PMC3618488 (Chemical communications (Cambridge, England), 2013).
# Like-named read-outs stand apart in the source and are kept apart here.
# Molecular target: Pseudomonas aeruginosa elastase (LasB) (Pseudomonas aeruginosa, UniProt P14756)
# Assay: biochemical
# Assay type: biochemical
# Conditions: for fold reduction in potency relative to tropolone (3): against LasB, compared with 3
# Pseudomonas aeruginosa elastase (LasB), sequence (P14756 198-498): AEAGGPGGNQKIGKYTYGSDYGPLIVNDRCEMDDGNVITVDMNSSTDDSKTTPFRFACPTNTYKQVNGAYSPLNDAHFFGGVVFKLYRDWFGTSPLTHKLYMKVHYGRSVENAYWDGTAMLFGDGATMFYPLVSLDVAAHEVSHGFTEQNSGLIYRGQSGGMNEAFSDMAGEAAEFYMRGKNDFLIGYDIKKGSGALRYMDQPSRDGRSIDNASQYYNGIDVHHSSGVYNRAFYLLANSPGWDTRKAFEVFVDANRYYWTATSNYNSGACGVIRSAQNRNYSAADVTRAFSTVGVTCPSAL
Compound,IC50,fold reduction in potency relative to tropolone (3),IC50 (read-out: IC50 for LasB inhibition)
"CC(C)c1cccc(=O)c(O)c1 [compound 5, β-thujaplicin]",1340 ± 370 µM,~ 3 fold,
"Nc1ccc(O)c(=O)cc1 [compound 6, 5-aminotropolone]",,,180 ± 1 µM
acetyltropolone [compound 4],,~ 3 fold,
